Assay results taken from patent publication US9375000B2, “Pesticidal arylpyrrolidines” (Bayer Intellectual Property GmbH, priority 2011, dated 2016).
Where “and” joins values, the source holds several entries; their conditions need not be identical. Equal values may be shown once.

What was measured:
Assay type in all cases: in vivo
[1] = test system: Cucurbit Leaf Beetle (Aulacophora femoralis); test: Cucurbit leaf beetle (Aulacophora femoralis) cucumber leaf dip test; details: after 7 days
In short: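 Cucumber leaves dipped in compound formulated with DMF and polyoxyethylene alkyl phenyl ether, diluted in water, with ammonium salt or ammonium salt plus penetration enhancer at 1000 ppm added if necessary; dried leaves placed on sterilized soil with five second-instar larvae. Kept at 25° C; larval mortality counted after 7 days.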

[2] = test system: Two-Spotted Spider Mite (Tetranychus urticae); test: Two-spotted spider mite (Tetranychus urticae) spray test on kidney bean; details: after 7 days
In short: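 Kidney bean plants at the two-leaf stage carried 50-100 adult mites and were sprayed one day later with compound in DMF/polyoxyethylene alkyl phenyl ether diluted in water. Ammonium salt and penetration enhancer at 1000 ppm were added if needed. Acaricidal activity (% mites killed) was scored after 7 days in a greenhouse.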

[3] = test system: Thrips palmi; test: Thrips palmi spray test (THRIPL); details: after 6 days
Description: (§1) Unless not mentioned otherwise, the test solutions were prepared as follows:
(§2) Solvent: 3 parts by weight Dimethylformamide
(§3) Emulsifier: 1 part by weight Polyoxyethylene alkyl phenyl ether
(§4) In order to make an appropriate formulation of an active compound, 1 part by weight of the active compound is mixed with the above mentioned amount of solvent and emulsifier and the mixture is diluted with water to a prescribed concentration. Ammonium salt or ammonium salt and penetration enhancer in a dosage of 1000 ppm are added to the desired concentration if necessary.
The compound solutions are sprayed to a cucumber seedling (Cucumis sativus). After drying, the treated plant is placed in a plastic stand. About 100 thrips-eggs (Thrips palmi) on a piece of filter paper are attached to the plant and covered with a cage to keep 100% humidity. The plant is kept in a room at 23° C. After 6 days activity in % is evaluated by feeding damage degree. An insecticidal activity of 100 means that there was no feeding damage, whereas an insecticidal activity of 0% means that there is no difference to the untreated control.

[4] = test system: Larvae of Spodoptera litura; test: Larvae of Spodoptera litura, method using artificial feeds; details: artificial feed, after 7 days
In short: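 Compound formulated in dimethylformamide with polyoxyethylene alkyl phenyl ether emulsifier, water-diluted and poured onto artificial diet. Five 3rd-instar Spodoptera litura larvae per cup, held at 25° C and 50-60% humidity. Mortality after 7 days expressed as pesticidal ratio.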

[5] = test system: adult engorged female Boophilus microplus ticks; test: Test against Boophilus microplus (dip); details: dip, after 7 days
Description: (§5) Solvent: dimethyl sulfoxide
To produce a suitable preparation of active compound, 10 mg of active compound are dissolved in 0.5 ml solvent, and the concentrate is diluted with water to the desired concentration. Eight to ten adult engorged female Boophilus microplus ticks are placed in perforated plastic beakers and immersed in aqueous compound solution for one minute. Ticks are transferred to a filter paper in a plastic tray. Egg deposition of fertile eggs is monitored after. After 7 days mortality in % is determined. 100% means that all the ticks have been killed; 0% means that none of the ticks have been killed.

[6] = test system: Tobacco Cutworm (Spodoptera litura) Larvae; test: Tobacco cutworm (Spodoptera litura) larvae, sweet potato leaf dip test; details: dead larvae after 7 days
Description: as §1, §2, §3, §4
Leaves of sweet potato were immersed in the test solution at the appropriate concentration, and the leaves were dried in air. The leaves were then placed in a petri dish having a diameter of 9 cm, and ten Spodoptera litura at third instar larvae were released therein. The petri dishes were placed in a temperature-controlled chamber at 25° C. After 2 days and 4 days more sweet potato leaves were added. After 7 days, the number of dead larvae was counted to calculate the insecticidal activity. An insecticidal activity of 100% means that all larvae were killed, whereas an insecticidal activity of 0% means that no larva was killed. In the current test, the results of two petri dishes for each treatment were averaged.

[7] = test system: Musca domestica; test: Test against Musca domestica; details: application rate 100 ppm; after 2 days
Description: as §5
To produce a suitable preparation of active compound, 10 mg of active compound are dissolved in 0.5 ml solvent, and the concentrate is diluted with water to the desired concentration. Prior to the assay, a piece of kitchen sponge is soaked with a mixture of sugar and compound solution and placed into a container. 10 adults (Musca domestica) are placed into the container and closed with a perforated lid. After 2 days mortality in % is determined. 100% means that all the flies have been killed; 0% means that none of the flies have been killed.

[8] = test system: Ctenocephalides felis; test: Test against Ctenocephalides felis (CTECFE), blood feeding; details: application rate 100 ppm in cattle blood; after 2 days
Description: as §5
To produce a suitable preparation of active compound, 10 mg of active compound are dissolved in 0.5 ml solvent, and the concentrate is diluted with cattle blood to the desired concentration. Approximately 20 adult unfed (Ctenocepahlides felis) are placed in flea chambers. The blood chamber, sealed with parafilm on the bottom, are filled with cattle blood supplied with compound solution and placed on top of the flea chamber, so that the fleas are able to suck the blood. The blood chamber is heated to 37° C. whereas the flea chamber is kept at room temperature.
After 2 days mortality in % is determined. 100% means that all the fleas have been killed; 0% means that none of the fleas have been killed.

[9] = active compound concentration 4 ppm
[10] = active compound concentration 20 ppm
[11] = active compound concentration 100 ppm

Compound: CCC(=O)NCc1ccc(N2CCC(c3cc(C(F)(F)F)cc(C(F)(F)F)c3)(C(F)(F)F)C2O)cc1C(F)(F)F (mixture of isomers) [A1-57]
- insecticidal activity [1, 9]: 100%
- acaricidal activity [2, 9]: 100%
- insecticidal activity (by feeding damage degree) [3, 10]: 100%
- insecticidal activity (pesticidal ratio) [4, 9]: 100%
- activity (mortality) ([5]; application rate 100 ppm): 90%

Compound: O=C(NCc1ccc(N2CCC(c3cc(Cl)cc(Cl)c3)(C(F)(F)F)C2O)cc1Br)C1CC1 (mixture of isomers) [A1-110]
- insecticidal activity [1, 10]: 100%
- acaricidal activity [2, 9]: 100%
- insecticidal activity (by feeding damage degree) [3, 10]: 98%
- insecticidal activity [6, 9]: 100%
- activity (mortality) ([5]; application rate 100 ppm): 90%

Compound: O=C(NCc1ccc(N2CCC(c3cc(Cl)c(Cl)c(Cl)c3)(C(F)(F)F)C2O)cc1I)C1CC1 (mixture of isomers) [A1-176]
- activity (mortality) [7]: 80%
- insecticidal activity [1, 10]: 100%
- acaricidal activity [2, 9]: 100%
- acaricidal activity [2, 10]: 100%
- insecticidal activity (by feeding damage degree) [3, 10]: 90%
- insecticidal activity (pesticidal ratio) [4, 9]: 100%
- insecticidal activity (pesticidal ratio) [4, 10]: 100%

Compound: CS(=O)(=O)CC(=O)NCc1ccc(N2CCC(c3cc(C(F)(F)F)cc(C(F)(F)F)c3)(C(F)(F)F)C2O)nc1Br (mixture of isomers) [A3-165]
- insecticidal activity [1, 9]: 100%
- insecticidal activity [1, 10]: 100%
- acaricidal activity [2, 9]: 90%
- insecticidal activity (pesticidal ratio) [4, 9]: 100%
- insecticidal activity (pesticidal ratio) [4, 10]: 100%
- activity (mortality) ([5]; application rate 100 ppm): 90%

Compound: O=C(NCc1ccc(N2CCC(c3cc(F)cc(Cl)c3)(C(F)(F)F)C2O)nc1C(F)(F)F)C1CC1 (mixture of isomers) [A3-170]
- activity (mortality) [7]: 90%
- insecticidal activity [1, 10]: 100%
- acaricidal activity [2, 10]: 100%
- insecticidal activity [6, 9]: 100%

Compound: C[S+]([O-])CC(=O)NCc1ccc(N2CCC(c3cc(C(F)(F)F)cc(C(F)(F)F)c3)(C(F)(F)F)C2O)cc1Cl (stereo not shown) [A1-32]
- insecticidal activity [1, 10]: 100%
- acaricidal activity [2, 10]: 100%
- insecticidal activity (pesticidal ratio) [4, 10]: 100%
- activity (mortality) ([5]; application rate 20 ppm): 95%

Compound: O=C(NCc1ccc(N2CCC(c3cc(F)cc(Cl)c3)(C(F)(F)F)C2O)cc1C(F)(F)F)C1CC1 (stereo not shown) [A1-242]
- insecticidal activity [1, 10]: 100%
- acaricidal activity [2, 9]: 100%
- insecticidal activity (by feeding damage degree) [3, 10]: 90%
- insecticidal activity [6, 9]: 100%

Compound: O=C(NCc1ccc(N2CCC(c3cc(Br)cc(Br)c3)(C(F)(F)F)C2O)cc1C(F)(F)F)C1CC1 (stereo not shown) [A1-253]
- activity (mortality) [7]: 90%
- insecticidal activity [1, 9]: 100%
- insecticidal activity [1, 10]: 100%
- acaricidal activity [2, 9]: 100%
- acaricidal activity [2, 10]: 100%
- insecticidal activity (by feeding damage degree) [3, 10]: 90%
- insecticidal activity (pesticidal ratio) [4, 9]: 100%
- insecticidal activity (pesticidal ratio) [4, 10]: 100%

Compound: CC(=O)NCc1ccc(N2CCC(c3cc(Cl)c(F)c(Cl)c3F)(C(F)(F)F)C2O)cc1C(F)(F)F (stereo not shown) [A1-282]
- insecticidal activity [1, 10]: 100%
- acaricidal activity [2, 9]: 100%
- insecticidal activity [6, 9]: 100%
- activity (mortality) ([5]; application rate 100 ppm): 95%

Compound: CCC(=O)NCc1ccc(N2CCC(c3cc(Cl)c(Cl)c(Cl)c3)(C(F)(F)F)C2O)cc1 (stereo not shown) [A1-384]
- insecticidal activity [1, 10]: 100%
- acaricidal activity [2, 9]: 98%
- insecticidal activity (by feeding damage degree) [3, 10]: 90%
- insecticidal activity [6, 9]: 100%

Compound: CCCC(=O)NCc1ccc(N2CCC(c3cc(Cl)c(Cl)c(Cl)c3)(C(F)(F)F)C2O)nc1C(F)(F)F (stereo not shown) [A3-14]
- activity (mortality) [8]: 95%
- insecticidal activity [1, 9]: 100%
- insecticidal activity [1, 10]: 100%
- acaricidal activity [2, 9]: 100%
- acaricidal activity [2, 10]: 100%
- insecticidal activity (pesticidal ratio) [4, 9]: 100%
- insecticidal activity (pesticidal ratio) [4, 10]: 100%

Compound: CCC(=O)NCc1ccc(N2CCC(c3cc(Cl)c(Cl)c(Cl)c3)(C(F)(F)F)C2O)nc1Cl (stereo not shown) [A3-101]
- insecticidal activity [1, 10]: 100%
- acaricidal activity [2, 9]: 100%
- insecticidal activity (by feeding damage degree) [3, 10]: 98%
- insecticidal activity [6, 9]: 100%

Compound: CCC(=O)NCc1ccc(N2CCC(c3cc(Cl)c(Cl)c(Cl)c3)(C(F)(F)F)C2O)nc1Br (stereo not shown) [A3-112]
- activity (mortality) [7]: 90%
- insecticidal activity [1, 10]: 100%
- acaricidal activity [2, 10]: 100%
- insecticidal activity (pesticidal ratio) [4, 10]: 100%

Compound: O=C(NCc1cnc(N2CCC(c3cc(Cl)cc(Cl)c3)(C(F)(F)F)C2O)nc1C(F)(F)F)C1CC1 (stereo not shown) [A4-5]
- insecticidal activity [1, 10]: 100%
- acaricidal activity [2, 9]: 100%
- insecticidal activity (by feeding damage degree) [3, 10]: 90%
- insecticidal activity [6, 9]: 100%

Compound: O=C(CC(F)(F)F)NCc1cnc(N2CCC(c3cc(Cl)cc(Cl)c3)(C(F)(F)F)C2O)nc1C(F)(F)F (stereo not shown) [A4-7]
- insecticidal activity [1, 10]: 100%
- acaricidal activity [2, 9]: 100%
- insecticidal activity (by feeding damage degree) [3, 10]: 90%
- insecticidal activity [6, 9]: 100%

Compound: CCC(=O)NCc1cnc(N2CCC(c3cc(Cl)c(F)c(Cl)c3F)(C(F)(F)F)C2O)nc1C(F)(F)F (stereo not shown) [A4-112]
- insecticidal activity [1, 10]: 100%
- acaricidal activity [2, 9]: 100%
- insecticidal activity (by feeding damage degree) [3, 10]: 98%
- insecticidal activity [6, 9]: 100%

Compound: CCC(=O)NCc1cnc(N2CCC(c3cc(Cl)c(Cl)c(Cl)c3)(C(F)(F)F)C2O)cc1C(F)(F)F (stereo not shown) [A5-13]
- insecticidal activity [1, 10]: 100%
- acaricidal activity [2, 10]: 100%
- acaricidal activity [2, 11]: 98%
- insecticidal activity (by feeding damage degree) [3, 11]: 100% and 90%
- insecticidal activity [6, 9]: 100%
- insecticidal activity (pesticidal ratio) [4, 9]: 100%

Compound: O=C(NCc1cnc(N2CCC(c3cc(Cl)c(Cl)c(Cl)c3)(C(F)(F)F)C2O)cc1C(F)(F)F)C1CC1 (stereo not shown) [A5-16]
- insecticidal activity [1, 10]: 100%
- acaricidal activity [2, 10]: 100%
- insecticidal activity (by feeding damage degree) [3, 11]: 100%
- insecticidal activity [6, 9]: 100%

Compound: O=C(CC(F)(F)F)NCc1cnc(N2CCC(c3cc(Cl)c(Cl)c(Cl)c3)(C(F)(F)F)C2O)cc1C(F)(F)F (stereo not shown) [A5-18]
- activity (mortality) [8]: 90%
- insecticidal activity [1, 10]: 100%
- acaricidal activity [2, 10]: 100%
- insecticidal activity (by feeding damage degree) [3, 11]: 100%
- insecticidal activity [6, 9]: 100%

Compound: CS(=O)(=O)CC(=O)NCc1cnc(N2CCC(c3cc(Cl)c(Cl)c(Cl)c3)(C(F)(F)F)C2O)cc1C(F)(F)F (stereo not shown) [A5-22]
- insecticidal activity [1, 10]: 100%
- acaricidal activity [2, 10]: 100%
- insecticidal activity (by feeding damage degree) [3, 11]: 98%
- insecticidal activity [6, 9]: 100%

Compound: O=C(NCc1ccc(N2CC(c3cc(C(F)(F)F)cc(C(F)(F)F)c3)(C(F)(F)F)CC2=O)nc1C(F)(F)F)C1CC1 (stereo not shown) [C3-27]
- activity (mortality) [7]: 90%
- insecticidal activity [6, 10]: 100%
- insecticidal activity (pesticidal ratio) [4, 10]: 100%
